Data published in the NIST ThermoML archive (doi:10.1021/je9006037).
± gives the expanded uncertainty stated by the source.

Tests used:
[1] = 298.15 K; 101.33 kPa; Liquid
[2] = refractive index (Na D-line) (dimensionless); xn = mol fraction of the nth substance listed; details: 101 kPa, Liquid

CCn1cc[n+](C)c1.O=S(=O)([O-])C(F)(F)F [1-ethyl-3-methylimidazolium trifluoromethanesulfonate]
Details	mass density [kg/m3]
[1]	1383.58 ± 4.8

CCn1cc[n+](C)c1.O=S(=O)([O-])C(F)(F)F [1-ethyl-3-methylimidazolium trifluoromethanesulfonate] + CCO
refractive index, [2]
Details	288.15 K	298.15 K	308.15 K	318.15 K	328.15 K
x1 = 0.05087	1.37603 ± 0.0012	1.37224 ± 0.0012	1.36847 ± 0.0012	1.3647 ± 0.0012	1.36088 ± 0.0012
x1 = 0.1004	1.38531 ± 0.0012	1.38169 ± 0.0012	1.37828 ± 0.0012	1.37496 ± 0.0012	1.37123 ± 0.0012
x1 = 0.1504	1.39279 ± 0.0012	1.38937 ± 0.0012	1.38635 ± 0.0012	1.38336 ± 0.0012	1.3795 ± 0.0012
x1 = 0.201	1.39891 ± 0.0012	1.39566 ± 0.0012	1.39241 ± 0.0012	1.38923 ± 0.0012	1.38584 ± 0.0012
x1 = 0.2991	1.40822 ± 0.0013	1.40549 ± 0.0013	1.40179 ± 0.0013	1.39872 ± 0.0013	1.39607 ± 0.0013
x1 = 0.3976	1.41506 ± 0.0013	1.41187 ± 0.0013	1.40885 ± 0.0013	1.40581 ± 0.0013	1.40267 ± 0.0013
x1 = 0.4976	1.42051 ± 0.0013	1.41741 ± 0.0013	1.41441 ± 0.0013	1.41137 ± 0.0013	1.40841 ± 0.0013
x1 = 0.5935	1.4247 ± 0.0013	1.42164 ± 0.0013	1.41857 ± 0.0013	1.41564 ± 0.0013	1.41275 ± 0.0013
x1 = 0.6981	1.42832 ± 0.0013	1.42536 ± 0.0013	1.42243 ± 0.0013	1.41956 ± 0.0013	1.41673 ± 0.0013
x1 = 0.7994	1.43116 ± 0.0013	1.42826 ± 0.0013	1.42543 ± 0.0013	1.42262 ± 0.0013	1.41981 ± 0.0013
x1 = 0.8407	1.4322 ± 0.0013	1.42937 ± 0.0013	1.42653 ± 0.0013	1.42372 ± 0.0013	1.42093 ± 0.0013
x1 = 0.892	1.43344 ± 0.0013	1.43061 ± 0.0013	1.42781 ± 0.0013	1.42501 ± 0.0013	1.42222 ± 0.0013
x1 = 0.9444	1.43452 ± 0.0013	1.43172 ± 0.0013	1.42894 ± 0.0013	1.42619 ± 0.0013	1.42346 ± 0.0013
x1 = 1	1.43599 ± 0.0013	1.43322 ± 0.0013	1.4304 ± 0.0013	1.42767 ± 0.0013	1.42494 ± 0.0013

CCn1cc[n+](C)c1.O=S(=O)([O-])C(F)(F)F [1-ethyl-3-methylimidazolium trifluoromethanesulfonate] + CO
refractive index, [2]
Details	288.15 K	298.15 K	308.15 K	318.15 K
x1 = 0.04981	1.35401 ± 0.0012	1.35019 ± 0.0012	1.34673 ± 0.0012	1.34425 ± 0.0012
x1 = 0.1006	1.37019 ± 0.0012	1.36654 ± 0.0012	1.3636 ± 0.0012	1.36131 ± 0.0012
x1 = 0.1503	1.38187 ± 0.0012	1.37846 ± 0.0012	1.37522 ± 0.0012	1.37261 ± 0.0012
x1 = 0.2002	1.39131 ± 0.0012	1.38786 ± 0.0012	1.38479 ± 0.0012	1.38175 ± 0.0012
x1 = 0.2516	1.39849 ± 0.0013	1.39527 ± 0.0013	1.39212 ± 0.0013	1.38903 ± 0.0013
x1 = 0.3018	1.40415 ± 0.0013	1.40103 ± 0.0013	1.3983 ± 0.0013	1.39535 ± 0.0013
x1 = 0.3977	1.41297 ± 0.0013	1.40987 ± 0.0013	1.40694 ± 0.0013	1.40394 ± 0.0013
x1 = 0.499	1.41931 ± 0.0013	1.4163 ± 0.0013	1.41325 ± 0.0013	1.41035 ± 0.0013
x1 = 0.5911	1.42382 ± 0.0013	1.42086 ± 0.0013	1.41783 ± 0.0013	1.41502 ± 0.0013
x1 = 0.7059	1.42818 ± 0.0013	1.42529 ± 0.0013	1.42236 ± 0.0013	1.41954 ± 0.0013
x1 = 0.8054	1.43127 ± 0.0013	1.42843 ± 0.0013	1.42553 ± 0.0013	1.42265 ± 0.0013
x1 = 0.8494	1.43236 ± 0.0013	1.42952 ± 0.0013	1.42665 ± 0.0013	1.42387 ± 0.0013
x1 = 0.9013	1.43359 ± 0.0013	1.4308 ± 0.0013	1.42799 ± 0.0013	1.42515 ± 0.0013
x1 = 1	1.43599 ± 0.0013	1.43322 ± 0.0013	1.4304 ± 0.0013	1.42767 ± 0.0013

CCO [ethanol]
Details	mass density [kg/m3]
[1]	785.1 ± 0.31

CCO [ethanol] + CCn1cc[n+](C)c1.O=S(=O)([O-])C(F)(F)F
[2], x2 = 0
Details	refractive index
288.15 K	1.36358 ± 0.0012
298.15 K	1.3593 ± 0.0012
308.15 K	1.35503 ± 0.0012
318.15 K	1.35073 ± 0.0012
328.15 K	1.3463 ± 0.0012

CO [methanol]
Details	mass density [kg/m3]
[1]	786.49 ± 0.31

CO [methanol] + CCn1cc[n+](C)c1.O=S(=O)([O-])C(F)(F)F
[2], x2 = 0
Details	refractive index
288.15 K	1.33071 ± 0.0012
298.15 K	1.32653 ± 0.0012
308.15 K	1.32237 ± 0.0012
318.15 K	1.3182 ± 0.0012

CCCO [propan-1-ol]
Details	mass density [kg/m3]
[1]	799.56 ± 0.61

CCCO [propan-1-ol] + CCn1cc[n+](C)c1.O=S(=O)([O-])C(F)(F)F
[2], x2 = 0
Details	refractive index
288.15 K	1.38732 ± 0.0012
298.15 K	1.38318 ± 0.0012
308.15 K	1.37897 ± 0.0012
318.15 K	1.37471 ± 0.0012
328.15 K	1.37036 ± 0.0012
338.15 K	1.36587 ± 0.0012

CC(C)O [propan-2-ol]
Details	mass density [kg/m3]
[1]	780.89 ± 0.31

CC(C)O [propan-2-ol] + CCn1cc[n+](C)c1.O=S(=O)([O-])C(F)(F)F
[2], x2 = 0
Details	refractive index
288.15 K	1.37924 ± 0.0012
298.15 K	1.37492 ± 0.0012
308.15 K	1.37048 ± 0.0012
318.15 K	1.36586 ± 0.0012
328.15 K	1.36103 ± 0.0012
338.15 K	1.35599 ± 0.0012
